Target: T1, GluR5 receptor (Homo sapiens, UniProt P39086)
T1 construct: expressed in transfected cells; host or cells: HEK 293
T1 sequence (P39086 31-918): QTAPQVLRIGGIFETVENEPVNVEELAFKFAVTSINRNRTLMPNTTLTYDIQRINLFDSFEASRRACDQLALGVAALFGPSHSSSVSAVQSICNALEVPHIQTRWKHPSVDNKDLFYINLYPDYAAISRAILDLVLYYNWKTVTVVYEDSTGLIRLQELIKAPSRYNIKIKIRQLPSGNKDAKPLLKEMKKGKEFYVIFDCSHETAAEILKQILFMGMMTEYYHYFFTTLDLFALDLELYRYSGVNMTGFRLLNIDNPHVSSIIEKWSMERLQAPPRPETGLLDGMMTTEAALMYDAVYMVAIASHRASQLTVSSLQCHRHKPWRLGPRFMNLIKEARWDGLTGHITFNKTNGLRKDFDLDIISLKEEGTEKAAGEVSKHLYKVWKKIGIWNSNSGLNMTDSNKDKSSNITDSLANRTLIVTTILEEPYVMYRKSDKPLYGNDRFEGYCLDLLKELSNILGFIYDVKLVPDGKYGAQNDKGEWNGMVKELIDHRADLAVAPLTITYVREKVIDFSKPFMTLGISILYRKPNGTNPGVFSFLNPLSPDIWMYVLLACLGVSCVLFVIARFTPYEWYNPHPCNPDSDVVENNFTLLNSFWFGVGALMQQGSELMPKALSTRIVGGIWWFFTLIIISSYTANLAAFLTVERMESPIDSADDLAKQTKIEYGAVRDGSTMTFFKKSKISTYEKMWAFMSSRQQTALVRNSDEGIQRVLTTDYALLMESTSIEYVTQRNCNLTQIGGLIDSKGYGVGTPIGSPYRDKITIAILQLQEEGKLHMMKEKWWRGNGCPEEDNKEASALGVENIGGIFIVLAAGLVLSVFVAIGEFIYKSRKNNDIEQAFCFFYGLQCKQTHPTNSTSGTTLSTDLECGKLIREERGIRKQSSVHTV
Assay: GluR5 functional assay: inhibition of domoate-induced increase in Cai (FLIPR)
Assay type: cell-based
Conditions: HEK 293 cells stably expressing GluR5; domoate 2 μM; Fluo-4 FLIPR, 25° C.
Excerpt: (§1) This example describes cell-based assays carried out using human embryonic HEK 293 cells stably expressing GluR5 and GluR6 receptors, respectively, in which assays the inhibition of domoate-induced increase in Cai is used as a measure for glutamate antagonist activity of test substances.
(§2) The intracellular free calcium concentration (Cai) is regulating the majority of metabolic processes in mammalian cells. Elevations of Cai in excitable tissues such as neurones are seen after specific activation of receptor operated calcium channels (e.g. glutamate, receptors), or after depolarisation and opening of voltage operated calcium channels. Some neurotransmitters and neuro-modulator increase Cai by activating G-protein coupled ionophors or by release of Cai from intracellular stores via the second messenger IP3.
(§3) Cai is determined by fluorometric methods in a Fluorescent Image Plate Reader (FLIPR). Calcium-chelating fluorochromes (tetracarboxylic acids) are loaded into the cells as acetoxymethyl esters and subsequently released by an unspecific intracellular esterase. The free acids, which are impermeable to the cell membrane, are maintained in the cell for hours. The fluorescence spectrum (either EXmax, EMmax or both) is changed by the binding of calcium, and the fluorescence is directly proportional to the Cai.
(§4) The present method uses the fluorochromes Fluo-3 or Fluo-4 as the calcium-chelator. Fluo-3/Fluo-4 is virtually non-fluorescent without calcium, but the calcium-Fluo-3/Fluo-4 complexes show a bright fluorescence (EMmax=526 nm) after excitation around 500 nm (EXmax=505 nm). This fluorescence spectrum is similar to the spectrum of fluorescein. Since excitation and emission is in the visible light region of the spectrum, standard equipment without quarts optics may be used.
The kainate subtype of ionotropic glutamate receptors exists of two high affinity subunits—KA1 and KA2, and three low affinity subunits—GluR5-7. The ion channel in the GluR5 receptor subtype can be made permeable for calcium by substitution of an arginine (R) to a glutamine (Q) in the pore region. The stably expressed human GluR5 receptors used here are calcium permeable (Q), which makes them ideal for fluorescence measurements. […]
(§5) After the loading period, the loading media is aspirated and the cells are washed twice with 100 μl Na^+ free Ringer (NN: 10 mM HEPES, 140 mM Choline chloride, 5 mM KCl, 1 mM MgCl2, 10 mM CaCl2, pH 7.4) to remove extracellular dye. 100 μl NN is added to each well, and the fluorescence is measured in the FLIPR.
(§6) Cells are pre-incubated for 1.5 min with test compound (50 μl) before addition of domoate (50 μl) to a final concentration of 2 μM when determined on GluR5 and 0.2 μM when determined on GluR6. […]
Work on Cc1cc(S(=O)(=O)O)c(NC(=O)Nc2cccc(Br)c2)cc1Cl [Compound 1a, 2-[3-(3-Bromo-phenyl)-ureido]-4-chloro-5-methyl-benzenesulfonic acid] yielded an IC50 of 1.1 µM. For O=C(Nc1ccc2ccccc2c1)Nc1cc(Cl)ccc1C(=O)O [Compound E2, 4-Chloro-2-(3-naphtalen-2-yl-ureido)-benzoic acid], the IC50 was 1.2 µM. For “2-[3-(3-Bromo-phenyl)-ureido]-4-chloro-benzenesulfonic acid, triethylammonium salt [Compound A1]”, the IC50 was 1.5 µM. For O=C(Nc1cccc(Cl)c1)Nc1cc(Cl)ccc1C(=O)O [Compound C14, 4-Chloro-2-[3-(3-chloro-phenyl)-ureido]-benzoic acid], the IC50 was 1.3 µM.

Target: T2, GluR6 receptor (Homo sapiens, UniProt Q13002)
T2 construct: expressed in transfected cells; host or cells: HEK 293
T2 sequence (Q13002 32-908): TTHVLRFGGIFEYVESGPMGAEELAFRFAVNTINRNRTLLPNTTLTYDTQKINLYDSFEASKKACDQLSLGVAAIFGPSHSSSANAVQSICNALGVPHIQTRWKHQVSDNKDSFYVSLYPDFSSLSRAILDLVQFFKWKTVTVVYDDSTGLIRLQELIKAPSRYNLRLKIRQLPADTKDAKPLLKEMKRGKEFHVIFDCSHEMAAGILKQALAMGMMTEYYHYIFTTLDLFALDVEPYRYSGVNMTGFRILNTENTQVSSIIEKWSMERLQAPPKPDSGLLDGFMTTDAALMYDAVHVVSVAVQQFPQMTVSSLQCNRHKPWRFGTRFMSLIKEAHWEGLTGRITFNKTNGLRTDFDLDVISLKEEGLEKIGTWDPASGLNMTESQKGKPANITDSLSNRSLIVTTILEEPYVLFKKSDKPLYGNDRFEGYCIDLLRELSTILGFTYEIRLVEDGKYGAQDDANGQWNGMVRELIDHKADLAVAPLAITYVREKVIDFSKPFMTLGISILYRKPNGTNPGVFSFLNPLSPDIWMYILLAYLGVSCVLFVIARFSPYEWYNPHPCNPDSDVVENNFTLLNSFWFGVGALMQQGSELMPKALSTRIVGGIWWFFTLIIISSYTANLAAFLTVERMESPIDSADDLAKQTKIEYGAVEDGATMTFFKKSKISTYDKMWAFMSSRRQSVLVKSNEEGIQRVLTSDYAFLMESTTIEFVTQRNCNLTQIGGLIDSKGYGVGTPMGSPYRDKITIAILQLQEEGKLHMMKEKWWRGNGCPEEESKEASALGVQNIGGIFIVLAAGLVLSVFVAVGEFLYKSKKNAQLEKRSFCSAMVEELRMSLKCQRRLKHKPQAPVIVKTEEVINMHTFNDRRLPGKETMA
Assay: GluR6 functional assay: inhibition of domoate-induced increase in Cai (FLIPR)
Assay type: cell-based
Conditions: HEK 293 cells stably expressing GluR6; domoate 0.2 μM; Fluo-4 FLIPR, 25° C.
Excerpt: as §1, §2, §3
as §4, with “used. […]” for “used.”
as §5, §6
• Temperature: 25° C. • Preincubation: 50 μl test solution at a rate of 30 μl/sec and starting height of 100 μl • […] phase: 50 μl domoate solution (8 μM) at a rate of 35 μl/sec and starting height of 150 μl • Reading intervals: preincubation—10 sec×7 and 3 sec×3 antagonist phase—3 sec×17 and 10 sec×12 […]
Cc1cc(S(=O)(=O)O)c(NC(=O)Nc2cccc(Br)c2)cc1Cl [Compound 1a, 2-[3-(3-Bromo-phenyl)-ureido]-4-chloro-5-methyl-benzenesulfonic acid] showed an IC50 of 32 µM. O=C(Nc1ccc2ccccc2c1)Nc1cc(Cl)ccc1C(=O)O [Compound E2, 4-Chloro-2-(3-naphtalen-2-yl-ureido)-benzoic acid] showed an IC50 of 70 µM. For “2-[3-(3-Bromo-phenyl)-ureido]-4-chloro-benzenesulfonic acid, triethylammonium salt [Compound A1]”, the IC50 was 10 µM. Work on O=C(Nc1cccc(Cl)c1)Nc1cc(Cl)ccc1C(=O)O [Compound C14, 4-Chloro-2-[3-(3-chloro-phenyl)-ureido]-benzoic acid] yielded an IC50 of 37 µM.

Tested on: not given
Assay: not given
Conditions: not given
Work on COc1ccc(NC(=O)Nc2cc(Cl)ccc2C(=O)O)cc1 yielded a melting point of 194 to 195 °C. With O=C(Nc1ccc2ccccc2c1)Nc1cc(Cl)ccc1-c1nnn[nH]1 the melting point was 167 to 169 °C (dec.). Work on O=C(Nc1cc(Cl)ccc1C(=O)O)Nc1ccccc1-c1ccccc1 yielded a melting point of 208 to 209 °C. Cc1cc(S(=O)(=O)O)c(NC(=O)Nc2ccc3ccccc3c2)cc1Cl showed a melting point greater than 300 °C. With O=C(Nc1cccc(Br)c1)Nc1cc(Cl)ccc1-c1noc(=O)[nH]1 the melting point was 210 to 211 °C (dec.). With O=C(Nc1ccc2ccccc2c1)Nc1cc(Cl)ccc1C(=O)O [Compound E2, 4-Chloro-2-(3-naphtalen-2-yl-ureido)-benzoic acid] the melting point was 176 to 179 °C. In the case of O=C(Nc1ccccc1)Nc1cc(Cl)ccc1C(=O)O, the melting point is reported as 186 to 188 °C. In the case of O=C(Nc1ccccc1Br)Nc1cc(Cl)ccc1C(=O)O, the melting point is reported as 195 to 197 °C. Work on O=C(Nc1ccccn1)Nc1cc(Cl)ccc1C(=O)O yielded a melting point of 222 to 224 °C. With O=C(Nc1cccc(C(F)(F)F)c1)Nc1cc(Cl)ccc1-c1noc(=O)[nH]1 the melting point was 246 to 248 °C (dec.). In the case of O=C(Nc1ccccc1O)Nc1cc(Cl)ccc1C(=O)O, the melting point is reported as 179 to 180 °C (dec.). In the case of O=C(Nc1cc(Cl)ccc1C(=O)O)Nc1ccccc1C(F)(F)F, the melting point is reported as 173 to 175 °C. Compound O=C(Nc1cccc(-c2ccccc2)c1)Nc1cc(Cl)ccc1C(=O)O has a melting point of 181 to 183 °C. With O=C(Nc1ccc(O)cc1)Nc1cc(Cl)ccc1C(=O)O the melting point was 212 to 214 °C (dec.). In the case of O=C(Nc1ccc2c(c1)-c1ccccc1C2=O)Nc1cc(Cl)ccc1C(=O)O, the melting point is reported as 260 to 263 °C (dec.). With O=C(Nc1ccc(I)cc1)Nc1cc(Cl)ccc1C(=O)O the melting point was 209 to 210 °C (dec.). For O=C(Nc1cccc(Cl)c1)Nc1cc(Cl)ccc1C(=O)O [Compound C14, 4-Chloro-2-[3-(3-chloro-phenyl)-ureido]-benzoic acid], the melting point was 207 to 209 °C. In the case of O=C(Nc1cc2ccccc2[nH]1)Nc1cc(Cl)ccc1S(=O)(=O)O, the melting point is reported as 277 to 279 °C (dec.). With O=C(Nc1ccc(F)cc1)Nc1cc(Cl)ccc1C(=O)O the melting point was 194 to 195 °C. O=C(Nc1cccs1)Nc1cc(Cl)ccc1C(=O)O showed a melting point of 199 to 200 °C. In the case of O=C(Nc1cccc(O)c1)Nc1cc(Cl)ccc1C(=O)O, the melting point is reported as 209 to 211 °C. In the case of O=C(Nc1cccc(I)c1)Nc1cc(Cl)ccc1C(=O)O, the melting point is reported as 192 to 193 °C. With Cc1cc(S(=O)(=O)O)c(NC(=O)Nc2cc3ccccc3[nH]2)cc1Cl the melting point was 284 to 286 °C (dec.). For O=C(Nc1ccc(Cl)cc1)Nc1cc(Cl)ccc1C(=O)O, the melting point was 205 to 207 °C. For O=C(Nc1cccc(C(F)(F)F)c1)Nc1cc(Cl)ccc1C(=O)O, the melting point was 179 to 182 °C. For O=C(Nc1ccc2c(c1)OCO2)Nc1cc(Cl)ccc1C(=O)O, the melting point was 183 to 185 °C. In the case of COc1ccccc1NC(=O)Nc1cc(Cl)ccc1C(=O)O, the melting point is reported as 181 to 183 °C. For O=C(Nc1ccc(-c2ccccc2)cc1)Nc1cc(Cl)ccc1C(=O)O, the melting point was 193 to 194 °C.
